Patent US20160243151A1, “CO-RELEASING COMPOUNDS & FORMULATIONS THEREOF USEFUL FOR INDUCING MITOCHONDRIAL BIOGENESIS AND TISSUE REPAIR” (UNIVERSITÄT ZÜRICH, priority 2013, published 2016)

Assays:
[1] = test system: E14 ESC embryoid bodies; assay: beating embryoid body out-growths; type: cell-based, mouse; conditions: MitoQ given in the initial five days of differentiation
Experimental: Culture and differentiation of murine E14 cells, murine D3 cells and human MEL1 cells. These cell lines were independently grown at 37° C. in 5% CO2 on gelatin-coated substrates prepared by coating plastic tissue culture flasks with a 0.1% gelatin solution. Cells were maintained in a standard medium (Iscove's Modified Dulbecco's Medium, Invitrogen) plus 15% newborn calf serum, non-essential amino acids, and nucleosides stock. Leukemia inhibitory factor (LIF) (Chemicon) at a final concentration of 1,000 U/ml and 100 μM 2-mercaptoethanol were added to standard medium to prevent differentiation. For the induction of differentiation the hanging drop method such as described in Keller, 1995, Curr. Opin. Cell. Biol., 7(6), 862-9 was used. E14 cells were cultivated without LIF in hanging drops to form embryoid bodies (EBs) ([…] cells per drop) for 2 days, then kept in suspension for 2 days, and finally plated on gelatin-coated, 96 well, single-culture dishes or single well slides. […] Adhered EBs monitored daily under an inverted microscope for spontaneously beating foci from day 3 onward until day 13. In total, 3×96 EBs from E14 cells were monitored. To confirm that the increase in contracting EBs is HO-1/CO-mediated, E14 cells were transduced with Sh-HO1 vector or empty vector, differentiated as above and monitored by fluorescence microscopy. […]

[2] = test system: Hepa 1-6 cells; assay: MTT reduction assay in Hepa 1-6 cells; type: cell-based, mouse; conditions: control and cytomix-exposed cells, 24 h
Experimental: Mouse hepatoma cells (ATCC, CRL-1830) were grown to near confluence according to the manufacturer's instructions and then exposed to cytomix (a) for 24 hours. At the time of cytomix exposure, cells were treated with B12-CORM2 (25 μM) (b) or the other compounds shown in panel (A). […] (B) shown the relative mRNA levels for the pro-inflammatory enzyme NOS2 (black) and the anti-inflammatory cytokine interleukin 10 (IL10) (white), as measured by real time RT-PCR. Control and cytomix-treated cells were harvested, disrupted, and total RNA extracted. Both gene products increased in response to cytomix, but B12-CORM2 reduced NOS2 and enhanced IL10 expression. […]
Metabolic capacity assessment: The metabolic state of Hepa 1-6 liver cells was measured using the MTT (3-(4,5-dimethylthiazol-2-yl)-2,5-diphenyltetrazolium bromide, a yellow tetrazole) reduction assay. MTT is reduced to the purple formazan by living cells, which is detected colorimetrically (at 570 nm). […]
Cytomix damages and kills liver cells such as Hepa 1-6 cells. The metabolic state of Hepa 1-6 liver cells were measured using the MTT reduction assay. MTT (3-(4,5-dimethylthiazol-2-yl)-2,5-diphenyltetrazolium bromide, a yellow tetrazole) is reduced to the purple formazan by living cells, which is detected colorimetrically. […]

[3] = test system: H9c2 cells; assay: Western blot densitometry in H9c2 cells exposed to DOX; type: cell-based, rat; conditions: +DOX (0.5 μg/ml), 3 days of differentiation
Experimental: (§1) Cell culture and treatments. H9c2 cells (embryonic rat cardiomyocytes; ATCC) were maintained in DMEM (Invitrogen) supplemented with 10% fetal bovine serum (Invitrogen) and 2 mmol/l 1-glutamine. Cells were plated on 35- or 100-mm dishes in DMEM with 2% FCS for differentiation. Doxorubicin (DOX) was added to complete medium and incubated at 37° C. for different intervals at a concentration (0.5 μg/ml) similar to the plasma concentrations encountered in clinical use. Some cells were exposed to B12-CORM2 (25 μM) with or without DOX. Cells collected after 3 days of differentiation.
Differentiation assessment. Western blot analysis and densitometry were performed relative to tubulin for alpha-actinin as a specific marker of cardiomyocyte differentiation and intactness of the contractile apparatus.
Mitochondrial integrity and density assessment. Western blot analysis and densitometry were performed relative to tubulin for citrate synthase.
DOX and/or B12-CORM2 were added complete medium on day 1.

[4] = test system: H9c2 cells; assay: cell survival by Trypan blue exclusion in H9c2 cells exposed to DOX; type: cell-based, rat; conditions: +DOX (0.5 μg/ml)
Experimental: as §1
Cell survival. Cell survival was measured by Trypan blue exclusion.
DOX and/or B12-CORM2 were added complete medium on day 1. […] Mitochondrial protection was accompanied by improved cell survival of B12-CORM2-treated cells exposed to DOX, as assessed by Trypan blue exclusion (Table 5).

[5] = test system: Hepa 1-6 cells; assay: NOS2 and IL10 mRNA in cytomix-exposed Hepa 1-6 cells; type: cell-based, mouse; conditions: cytomix 24 h
Experimental: Mouse hepatoma cells (ATCC, CRL-1830) were grown to near confluence according to the manufacturer's instructions and then exposed to cytomix (a) for 24 hours. At the time of cytomix exposure, cells were treated with B12-CORM2 (25 μM) (b) or the other compounds shown in panel (A). […] (B) shown the relative mRNA levels for the pro-inflammatory enzyme NOS2 (black) and the anti-inflammatory cytokine interleukin 10 (IL10) (white), as measured by real time RT-PCR. Control and cytomix-treated cells were harvested, disrupted, and total RNA extracted. Both gene products increased in response to cytomix, but B12-CORM2 reduced NOS2 and enhanced IL10 expression. […] Moreover, administration of the low molecular weight anti-oxidant N-acetyl cysteine (NAC, 5 mM) (d) abrogates the anti-inflammatory effect of the Re-based CORM according to the invention in accordance with the proposed redox mechanism of action. Finally, the NF-kB inhibitor BAY11 (BAY 11-7082, Santa Cruz) (e) fully blocks the cytomix effect on NOS2, but only partially reduces the effect on IL-10, indicating the NF-kB-independent mechanism of action of B12-CORM2 (*, P<0.05 compared with control cells; #, P<0.05 compared with cytomix treatment). […]
Inflammation assessment. The mRNA levels for the pro-inflammatory enzyme NOS2 and the anti-inflammatory cytokine interleukin 10 (IL10) were measured by real time RT-PCR.

## COC1=C(OC)C(=O)C(CCCCCCCCCC[P+](c2ccccc2)(c2ccccc2)c2ccccc2)=C(C)C1=O [MitoQ]
[1]
  effect on B12-CORM2-induced percentage of beating EB: the B12-CORM2 effect was blocked

## hemin
[2]
  MTT reduction (metabolic capacity): did not provide any protection against the cytomix-induced damage

## COc1cccc2c1C(=O)c1c(O)c3c(c(O)c1C2=O)C[C@@](O)(C(=O)CO)C[C@@H]3O[C@H]1C[C@H](N)[C@H](O)[C@H](C)O1 [DOX, Doxorubicin]
[3]
  Alpha actinin expression levels (% as compared to untreated cells): 57.1% (11)
  Citrate synthase expression levels (% as compared to untreated cells): 60% (12.3)
[4]
  Surviving cells (% as compared to untreated cells): 61% (9.9)

## Cc1ccc(S(=O)(=O)/C=C/C#N)cc1 [BAY11]
[5]
  cytomix effect on NOS2 induction: fully blocks the cytomix effect on NOS2 induction

## CC(=O)N[C@@H](CS)C(=O)O [NAC, N-acetyl cysteine]
[5]
  inflammatory response to cytomix (NOS2, IL10 mRNA): not protective
